# Test results as given in patent EP4737448A1, “SARM1 ENZYME ACTIVITY INHIBITOR AND USE THEREOF” (Artivila (ShenZhen) Innovation Center, Ltd., priority 2023, dated 2025).
# pIC50: −log10 of the molar value.
# Biological target: T1, SARM1 (Homo sapiens, UniProt Q6SZW1)
# T1 construct: the inventor produces full-length SARM1 for NADase activity assays and for screening; His (C); made in house; host or cells: HEK293 cells (transient transfection; digitonin lysate supernatant, not purified further)
# T1 sequence (Q6SZW1 28-724): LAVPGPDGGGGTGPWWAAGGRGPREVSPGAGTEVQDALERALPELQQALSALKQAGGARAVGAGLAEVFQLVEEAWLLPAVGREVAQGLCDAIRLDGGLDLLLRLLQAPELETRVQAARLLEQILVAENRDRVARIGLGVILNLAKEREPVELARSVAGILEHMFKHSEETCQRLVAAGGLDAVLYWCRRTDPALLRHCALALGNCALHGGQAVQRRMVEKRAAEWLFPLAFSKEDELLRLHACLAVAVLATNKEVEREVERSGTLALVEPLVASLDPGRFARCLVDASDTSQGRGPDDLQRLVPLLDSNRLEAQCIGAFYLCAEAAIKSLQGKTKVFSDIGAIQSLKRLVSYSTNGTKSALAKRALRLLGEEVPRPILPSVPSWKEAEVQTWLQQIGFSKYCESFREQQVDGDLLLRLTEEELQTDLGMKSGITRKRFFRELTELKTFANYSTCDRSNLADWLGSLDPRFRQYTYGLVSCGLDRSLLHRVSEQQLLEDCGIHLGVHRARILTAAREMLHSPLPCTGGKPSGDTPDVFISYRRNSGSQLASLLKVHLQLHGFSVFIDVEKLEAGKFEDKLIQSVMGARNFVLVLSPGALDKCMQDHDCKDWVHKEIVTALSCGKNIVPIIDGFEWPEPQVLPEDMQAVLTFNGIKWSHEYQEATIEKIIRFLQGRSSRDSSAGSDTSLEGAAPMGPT
# Assay: In vitro biochemical assay for inhibiting SARM1 enzymatic activity (PC6 fluorescence, NAD substrate, NMN activator)
# Details: 0.05 µg/mL SARM1, 50 µM NAD, 50 µM PC6, 50 µM NMN, 10 min pre-incubation, 30 min at room temperature
# Procedure: Compounds to be tested were stocked at 200 µM or 10 mM (in DMSO), and further diluted to the desired compound concentration for the in vitro SARM1 enzyme assay and inhibitor screening.
# The gene sequence encoding SARM1 protein was amplified by PCR and the PCR amplification product was constructed into the pcDNA3.1-HIS-C plasmid. This construction was completed by YouBio Biological Technology (Hunan, China).
# HEK293 cells were cultured in DMEM in a 10 cm dish. The next day, cells were transfected with 15 µg of the pcDNA3.1-SARM1-HIS-C expression plasmid.
# Cells were harvested 48 hours after the transfection. The SARM1 protein expressed in cells was obtained through cell lysis by digitonin, which was used for in vitro activity assay. The specific process was as follows:
# Cells were digested and detached from the dish using trypsin-EDTA, centrifuged at 1000 rpm for 5 minutes, washed once with PBS, then resuspended in PBS containing 100 µM digitonin at 0.6 mL PBS for the cells in 10 cm dish and lysed for 5 min. The cells were added with trypan blue and observed under a microscope. More than 90% of the cells were confirmed to be lysed. The cells were centrifuged at 5000 rpm for 10 min, and the supernatant containing SARM1 protein was collected.
# The compound was added into a solution of 50 mM Tris-HCl (pH 7.5) containing 0.05 µg/mL SARM1 to achieve a concentration of 200 µM, and then serially diluted 6 times, where each dilution was carried out by taking half of the previous solution and adding an equal volume of 50 mM Tris-HCl (pH 7.5) containing 0.05 µg/mL SARM1, yielding a set of final concentrations of the compound of either 200, 100, 50, 25, 12.5, 6.25 and 3.125 µM, or 200, 50, 12.5, 3.125, 0.78, 0.195 and 0.049 µM. No inhibitor was added in the control group. All mixtures were incubated at room temperature for 10 min.
# Subsequently, 50 µM NAD, 50 µM PC6 as substrate and 50 µM NMN as activator were added to the SARM1 protein incubated with the inhibitor and reacted for 30 min at room temperature. Wherein, the aforementioned concentrations of each component represent their respective final concentrations in the reaction system
# During the reaction, the fluorescence spectrum dynamics of PC6 was detected by a microplate reader, with excitation and emission wavelengths set at 390 nm and 520 nm, respectively. The activity of the protein was expressed as the reaction rate and half maximal inhibitory concentration was calculated. The higher the reaction rate, the stronger the protein activity, and the lower the inhibitory efficiency of the compound.
# Dose-response curves for inhibition of SARM1 enzymatic activity for NAD by the compounds were plotted using the above method.
row,Compound,pIC50
1,"O=C1C(Oc2ccc(Cl)cc2)CCN1c1ccc(-c2ccncc2)cc1 (stereo not shown) [Compound 2, 3-(4-chlorophenoxy)-1-(4-(pyridin-4-yl)phenyl)pyrrolidin-2-one]",4.52 to 5.00
2,"CC(c1ccc(Cl)cc1)C1CCN(c2ccc(-c3ccncc3)cc2)C1=O (stereo not shown) [Compound 4, 3-(1-(4-chlorophenyl)ethyl)-1-(4-(pyridin-4-yl)phenyl)pyrrolidin-2-one]",4.52 to 5.00
3,"O=C1C(Cc2ccc(Cl)cc2)CCN1c1ccc(-c2ccncc2)cc1Cl (stereo not shown) [Compound 11, 3-(4-chlorobenzyl)-1-(2-chloro-4-(pyridin-4-yl)phenyl)pyrrolidin-2-one]",4.52 to 5.00
4,"O=C1C(Cc2ccc(Cl)cc2)CCN1c1cnc(-c2ccncc2)nc1 (stereo not shown) [Compound 23, 3-(4-chlorobenzyl)-1-(2-(pyridin-4-yl)pyrimidin-5-yl)pyrrolidin-2-one]",4.52 to 5.00
5,"O=C1C(Cc2cccc(Cl)c2)CCN1c1ccc(-c2ccncc2)cc1 (stereo not shown) [Compound 26, 3-(3-chlorobenzyl)-1-(4-(pyridin-4-yl)phenyl)pyrrolidin-2-one]",4.52 to 5.00
6,"O=C1C(CCc2ccc(Cl)cc2)CCN1c1ccc(-c2ccncc2)cc1 (stereo not shown) [Compound 27, 3-(4-chlorophenethyl)-1-(4-(pyridin-4-yl)phenyl)pyrrolidin-2-one]",4.52 to 5.00
7,O=C1C(Cc2ccc(Cl)cn2)CCN1c1ccc(-c2ccncc2)cc1 (stereo not shown) [Compound 28],4.52 to 5.00
8,"O=C1C(Cc2ccc(Br)cc2)CCN1c1ccc(-c2ccncc2)cc1 (stereo not shown) [Compound 31, 3-(4-bromobenzyl)-1-(4-(pyridin-4-yl)phenyl)pyrrolidin-2-one]",4.52 to 5.00
9,"O=C1C(Cc2ccc([N+](=O)[O-])cc2)CCN1c1ccc(-c2ccncc2)cc1 (stereo not shown) [Compound 32, 3-(4-nitrobenzyl)-1-(4-(pyridin-4-yl)phenyl)pyrrolidin-2-one]",4.52 to 5.00
10,"N#Cc1cnccc1-c1ccc(N2CCC(Cc3ccc(Cl)cc3)C2=O)cc1 (stereo not shown) [Compound 36, 3-(4-chlorobenzyl)-1-(4-(3-cyanopyridin-4-yl)phenyl)pyrrolidin-2-one]",4.52 to 5.00
11,"O=C1C(Cc2ccc(Cl)cc2)CCON1c1ccc(-c2ccncc2)cc1 (stereo not shown) [Compound 40, 4-(4-chlorobenzyl)-2-(4-(pyridin-4-yl)phenyl)-1,2-oxaza-3-one]",5.00 to 6.00
12,"O=C1CC(Cc2ccc(Cl)cc2)C(=O)N1c1ccc(-c2ccncc2)cc1 (stereo not shown) [Compound 43, 3-(4-chlorobenzyl)-1-(4-(pyridin-4-yl)phenyl)pyrrolidin-2,5-one]",5.00 to 6.00
13,O=C1C(Cc2ccc(Cl)o2)CCN1c1ccc(-c2ccncc2)cc1 (stereo not shown) [Compound 73],5.00 to 6.00
14,"O=C1/C(=C/c2ccc(Cl)cc2)CCN1c1ccc(-c2ccncc2)nn1 [Compound 78, (E)-3-(4-chlorobenzylidene)-1-(6-(pyridin-4-yl)pyridazin-3-yl)pyrrolidin-2-one]",4.52 to 5.00
15,"O=C1C(Cc2ccc(F)c(F)c2)=CCN1c1ccc(-c2ccncc2)cc1 [Compound 85, 3-(3,4-difluorobenzyl)-1-(4-(pyridin-4-yl)phenyl)-1,5-dihydro-2H-pyrrolidin-2-one]",5.00 to 6.00
16,"COC(=O)c1ccc(CC2CCN(c3ccc(-c4ccncc4)cc3)C2=O)cc1 (stereo not shown) [Compound 86, methyl 4-((2-oxo-1-(4-(pyridin-4-yl)phenyl)pyrrolidin-3-yl)methyl)benzoate]",5.00 to 6.00
17,"O=C(O)c1ccc(CC2CCN(c3ccc(-c4ccncc4)cc3)C2=O)cc1 (stereo not shown) [Compound 87, 4-((2-oxo-1-(4-(pyridin-4-yl)phenyl)pyrrolidin-3-yl)methyl)benzoic acid]",4.52 to 5.00
18,"CN1CCN(Cc2ccc(CC3CCN(c4ccc(-c5ccncc5)cc4)C3=O)cc2)CC1 (stereo not shown) [Compound 88, 3-(4-((4-methylpiperazin-1-yl)methyl)benzyl)-1-(4-(pyridin-4-yl)phenyl)pyrrolidin-2-one]",4.52 to 5.00

# Results, then the compound that gave them:
row,pIC50,Compound
1,5.00 to 6.00,3-(4-chloro-2-fluorobenzyl)-1-(4-(pyridin-4-yl)phenyl)pyrrolidin-2-one [Compound 42]
2,> 6.00,C=C(Cc1ccc(Cl)cc1)C(=O)Nc1ccc(-c2ccncc2)cc1 [Compound 5]
3,5.00 to 6.00,"O=C1C(Cc2ccc(Cl)cc2)CCN1c1ccc(-c2ccncn2)cc1 (stereo not shown) [Compound 9, 3-(4-chlorobenzyl)-1-(4-(pyrimidin-4-yl)phenyl)pyrrolidin-2-one]"
4,5.00 to 6.00,"Cc1cc(N2CCC(Cc3ccc(Cl)cc3)C2=O)ccc1-c1ccncc1 (stereo not shown) [Compound 10, 3-(4-chlorobenzyl)-1-(3-methyl-4-(pyridin-4-yl)phenyl)pyrrolidin-2-one]"
5,> 6.00,S=C1C(Cc2ccc(Cl)cc2)CCN1c1ccc(-c2ccncc2)cc1 (stereo not shown) [Compound 12]
6,> 6.00,"O=C1N(Cc2ccc(Cl)cc2)CCN1c1ccc(-c2ccncc2)cc1 [Compound 13, 1-(4-chlorobenzyl)-3-(4-(pyridin-4-yl)phenyl)imidazolin-2-one]"
7,> 6.00,"Cc1cnccc1-c1ccc(N2CCC(Cc3ccc(Cl)cc3)C2=O)cc1 (stereo not shown) [Compound 14, 3-(4-chlorobenzyl)-1-(4-(3-methylpyridin-4-yl)phenyl)pyrrolidin-2-one]"
8,5.00 to 6.00,"O=C1C(Cc2ccc(Cl)c(F)c2)CCN1c1ccc(-c2ccncc2)cc1 (stereo not shown) [Compound 16, 3-(4-chloro-3-fluorobenzyl)-1-(4-(pyridin-4-yl)phenyl)pyrrolidin-2-one]"
9,5.00 to 6.00,"O=C1C(Cc2ccc(C(F)(F)F)cc2)CCN1c1ccc(-c2ccncc2)cc1 (stereo not shown) [Compound 18, 3-(4-trifluoromethylbenzyl)-1-(4-(pyridin-4-yl)phenyl)pyrrolidin-2-one]"
10,5.00 to 6.00,"N#Cc1ccc(CC2CCN(c3ccc(-c4ccncc4)cc3)C2=O)cc1 (stereo not shown) [Compound 19, 3-(4-cyanobenzyl)-1-(4-(pyridin-4-yl)phenyl)pyrrolidin-2-one]"
11,5.00 to 6.00,O=C1C(Cc2ccc(Cl)cc2)=CCN1c1ccc(-c2ccncc2)cc1 [Compound 22]
12,> 6.00,"O=C1C(Cc2ccc(Cl)cc2)CCN1c1ccc(-c2ccncc2F)cc1 (stereo not shown) [Compound 35, 3-(4-chlorobenzyl)-1-(4-(3-fluoropyridin-4-yl)phenyl)pyrrolidin-2-one]"
13,5.00 to 6.00,NC(=O)c1cnccc1-c1ccc(N2CCC(Cc3ccc(Cl)cc3)C2=O)cc1 (stereo not shown) [Compound 37]
14,5.00 to 6.00,"O=C1C(Cc2ccc(Cl)cc2)CCCN1c1ccc(-c2ccncc2)cc1 (stereo not shown) [Compound 38, 3-(4-chlorobenzyl)-1-(4-(pyridin-4-yl)phenyl)piperidin-2-one]"
15,5.00 to 6.00,"COc1cc(-c2ccncc2)ccc1N1CCCC(Cc2ccc(Cl)cc2)C1=O (stereo not shown) [Compound 39, 3-(4-chlorobenzyl)-1-(2-methoxy-4-(pyridin-4-yl)phenyl)piperidin-2-one]"
16,> 6.00,N#Cc1ccc(CC2CCN(c3ccc(-c4ccncc4)nn3)C2=O)cc1 (stereo not shown) [Compound 61]
17,> 6.00,Cc1ccc(CC2CCN(c3ccc(-c4ccncc4)nn3)C2=O)cc1 (stereo not shown) [Compound 63]
18,> 6.00,O=C1C(Cc2cc(F)cc(F)c2)CCN1c1ccc(-c2ccncc2)nn1 (stereo not shown) [Compound 68]
19,> 6.00,"Cc1cnccc1-c1ccc(N2CCC(Cc3ccc(Cl)cc3)C2=O)nn1 (stereo not shown) [Compound 74, 3-(4-chlorobenzyl)-1-(6-(3-methylpyridin-4-yl)pyridazin-3-yl)pyrrolidin-2-one]"
